Read-outs that look alike come from different tables or passages of the source. Residues, ends and D or L forms follow the SMILES beside them.
Columns and labels:
in vitro human BBB model = experiment: In vitro human BBB cell-based model assay; format: in vitro ADME; conditions: 50, 250 and 1250 μM
Experimental: The discrepancy between internalization and transport of (NMe)HAI is probably due to an increase in lipophilicity after methylation of the backbone, thereby enhancing internalization by passive diffusion but not favoring the transcytosis. To ensure that rD-HAI crosses the BBB through active transport, we proceeded to test its mechanism of transport using a human model of the BBB.
This assay was performed using the model published by Cecchelli and co-workers[53]. Endothelial cells and pericytes were defrosted in gelatin-coated Petri dishes (Corning). Pericytes and endothelial cells were cultured in DMEM pH 6.8 or in supplemented endothelial cell growth medium (Sciencells), respectively. After 48 h, pericytes (50,000 cells/well) and endothelial cells (80,000 cells/well) were seeded in gelatin-coated 12-well plates or in Matrigel-coated 12-well Transwell inserts (Corning), respectively. Medium was changed every 2–3 days and assays were performed 7–8 days after seeding. […] […] Then, 500 µL of the compound and 1,500 µL of Ringer-HEPES alone were introduced in the apical or in the basolateral compartments, respectively. The plates were set on at 37 °C for 2 h. The solutions from both compartments were then recovered and quantified by HPLC and identified by MALDI-TOF.

[1] = Caco-2 intestinal barrier model assay; conditions: human, Caco-2
Experimental: (§2) In a subsequent step we evaluated the transport capacity of these peptides using two in vitro barrier models, namely in an intestine (Caco-2 assay)[41] and a BBB model[39],[40] […] In these models, two compartments are separated by a membrane containing a monolayer of endothelial cells which mimics either the intestinal barrier or the BBB. One compartment contains the peptide, which is incubated for 2 h. The amount of peptide in each compartment is then analyzed to determine apparent permeability (Papp, in cm/s) and transport (T, in %). The integrity of the compound in the acceptor compartment is assessed by mass spectrometry (MS).
(§3) The ability of peptides to overcome the intestinal barrier was tested using Caco-2 cells. […] Briefly, experiments were done with cells (passage between 60 and 80) seeded on 4.67 cm^2 filters at a density of 5.25·10^4 cell/cm^2. Peptides dissolved in HBSS were incubated for 2 h at a 50 μM concentration with cell layers at 37 °C and 5% CO2. After the experiment, the content of each compartment was directly analyzed by HPLC and then transport (in %) and Papp were determined.

Caco-2 cells [2] = experiment: Caco-2 intestinal barrier model assay; conditions: for Caco-2 transport: Table 2; for Caco-2 transport / Caco-2 T (%): 2 h at 37 °C, HBSS, 50 μM, RP-HPLC; for Caco-2 T (%): Table 1; for Detection by MALDI-TOF MS in acceptor wells: Caco-2 assay, after 2 h
Experimental: as §2, §3

[3] = test system: bovine brain endothelial cells (BBECs); experiment: Internalization of Cf-labeled peptides by BBECs (CLSM, flow cytometry); format: cell-based; conditions: for Internalization with respect to the parent version (HAI): 50 μM; for Internalization with respect to the parent version (HAI) / Internalization profile among candidates: 3 h, 37 °C; for Internalization profile among candidates: Cf-labeled peptides 50 μM (R8 15 μM)
[4] = In vitro bovine BBB cell-based model assay; conditions: BBB Papp, 200 μM, RP-HPLC; for Papp at 2 h, 200 μM: bovine
Experimental: (§4) In these models, two compartments are separated by a membrane containing a monolayer of endothelial cells which mimics either the intestinal barrier or the BBB. One compartment contains the peptide, which is incubated for 2 h. The amount of peptide in each compartment is then analyzed to determine apparent permeability (Papp, in cm/s) and transport (T, in %). The integrity of the compound in the acceptor compartment is assessed by mass spectrometry (MS).
(§5) This assay was an adapted model[10] of the method previously published by Gaillard and de Boer[52]. Briefly, TEER was measured in all transwells (TEER > 100 Ω·cm^2), before performing the assay. […] The apical compartment was filled with 200 μL of the solution containing the peptide, and 800 µL of Ringer-HEPES was poured into the basal well. Three replicates of each peptide were assayed. The plate was left for 2 h in the incubator at 37 °C. Finally, the samples were collected and analyzed or frozen until analysis. LY fluorescence was measured in a 96-well plate with a Fluoroskan Ascent Microplate Fluorometer (Thermo Fisher Scientific).
(§6) In vitro Transport of AuNPs in using a Bovine BBB Cell-Based Model Assay. To assess the
(§7) capacity of HAI to cross the BBB, this peptide was conjugated to AuNPs and then assay ed in an in
vitro BBB cell-based model.

[5] = test system: in vitro bovine BBB model; experiment: In vitro bovine BBB cell-based model assay; conditions: for BBB T (%): 200 μM, RP-HPLC
Experimental: as §4, §5, §6, §7
vitro BBB cell-based model.

[6] = Peptide stability in human serum; format: in vitro ADME; conditions: male, human serum diluted with HBSS, 24 h, RP-HPLC; for half-life: human serum
Experimental: Nevertheless, peptides formed by L-amino acids have a short in vivo half-life in serum, which can reduce their potential bioactivity. The sensitivity of this peptide to proteases was tested at a concentration of 150 μM in HBSS/human serum 90:10 (v/v) for 24 h. At several time points, an aliquot was extracted, precipitated serum proteins with MeOH and then analyzed by RP-HPLC.
Peptides were dissolved in 1 mL of HBSS buffer/human serum (from human male AB plasma; Sigma-Aldrich) 10:90 (v/v) at a final concentration of 200 µM and incubated at 37 °C for 24 h. Aliquots of 50 µL were extracted at a range of incubation times and treated with 200 µL of cold CH3OH (4 °C) to precipitate serum proteins. After 30 min, samples were centrifuged at 13,000 g and 4 °C for 30 min. Supernatants were analyzed by RP-HPLC-PDA and MALDI-TOF MS, using similar procedures as for the quantification of the in vitro cell-based BBB model.

rat astrocytes [7] = experiment: Internalization of Cf-labeled peptides by rat astrocytes (CLSM, flow cytometry); format: cell-based; conditions: for Internalization with respect to the parent version (HAI): 50 μM; for Internalization with respect to the parent version (HAI) / Internalization profile among candidates: 3 h, 37 °C; for Internalization profile among candidates: Cf-labeled peptides 50 μM (R8 15 μM)
[8] = test system: bovine brain endothelial cells (BBECs); experiment: MTT toxicity assay in BBECs; format: cell-based; conditions: 50 μM, 24 h
Experimental: (§1) The assay was performed in 96-well plates, adding 3,150 cells to each well in 100 μL (immortalized cell line –i.e. BBECs) or 7,000 cells in 100 μL (primary cultures –i.e. rat astrocytes), seeded 24 h before performing the experiment. Cells were incubated with each peptide at a range of concentrations (20, 50 and 500 μM) in cellular medium for 24 h at 37 °C and 5% CO2. After 22 h, MTT (3-(4,5-dimethylthiazol-2-yl)−2,5-diphenyltetrazolium bromide) was added to a final concentration of 0.5 mg/mL. The cells with peptides and MTT were incubated for further 2 h. The medium was then discarded and 200 μL of 2-propanol was added to each well to dissolve the purple formazan, product of the conversion of MTT by the mitochondrial enzyme […]. The plate was kept in an orbital shaker for 30 min (15 rpm) to ensure the complete dissolution of formazan. Finally, absorbance was measured at 570 nm and cell viability percentages were calculated dividing the absorbance value of cells treated with a given peptide by the absorbance value of untreated cells. Experiments for each peptide were carried out by triplicate. Cells incubated with 1% SDS were used as control of 0% viability (value subtracted to all samples before viability calculus per each peptide).

rat astrocytes [9] = experiment: MTT toxicity assay in rat astrocytes; format: cell-based; conditions: 50 μM, 24 h
Experimental: as §1

Caco-2 cells [10] = test system: Caco-2 cells
Experimental: as §2, §3

[11] = test system: in vitro bovine BBB model
Experimental: as §4, §5, §6, §7
vitro BBB cell-based model.

in vitro = conditions: bovine
Experimental: as §4, §5, §6, §7
vitro BBB cell-based model.

## CC[C@@H](C)[C@@H](NC(=O)[C@@H](Cc1ccc(O)cc1)NC(=O)[C@H]1CCCN1C(=O)[C@@H](CCCNC(=N)N)NC(=O)[C@H](N)Cc1c[nH]cn1)C(=O)N[C@H](C)C(=O)N[C@H](Cc1c[nH]cn1)C(N)=O [rD-HAI, H-hrpyiah-NH2]
In vitro human BBB model
  Transport at increasing concentrations: saturation of transport
[1]
  Papp at 2 h, 50 μM: 0.00012 ± 0.0001 ×10⁻⁶ cm/s
Caco-2 cells [2]
  Caco-2 transport: 0.4 ± 0.3
[3]
  Internalization with respect to the parent version (HAI): maintained the internalization rate
[4]; Table 2, 2 h at 37 °C
  Papp at 2 h, 200 μM: 14 ± 2 ×10⁻⁶ cm/s
[5]; Table 2, 2 h at 37 °C
  BBB T (%): 17 ± 3%
[5]; vs HAI
  BBB transport rate relative to the parent version: around 1.5 times
[6]
  half-life: > 24 h
Rat astrocytes [7]
  Internalization with respect to the parent version (HAI): maintained the internalization rate

## CC[C@H](C)[C@@H](C(=O)N(C)[C@@H](Cc1ccc(O)cc1)C(=O)N1CCC[C@H]1C(=O)N[C@@H](CCCNC(=N)N)C(=O)N(C)[C@@H](Cc1c[nH]cn1)C(N)=O)N(C)C(=O)[C@H](C)NC(=O)[C@@H](N)Cc1c[nH]cn1 [(NMe)HAI, H-HA(NMe)I(NMe)YPR(NMe)H-NH2]
Caco-2 cells [2]
  Caco-2 transport: 0.200 ± 0.003
[3]
  Internalization with respect to the parent version (HAI): two-fold increase in internalization
[4]; Table 2, 2 h at 37 °C
  Papp at 2 h, 200 μM: 11.7 ± 1.3 ×10⁻⁶ cm/s
[5]; Table 2, 2 h at 37 °C
  BBB T (%): 13.9 ± 1.6%
[6]
  half-life: > 24 h
Rat astrocytes [7]
  Internalization with respect to the parent version (HAI): two-fold increase in internalization

## CC(C)C[C@H](NC(=O)[C@@H](N)C(C)C)C(=O)N[C@@H](CCCNC(=N)N)C(=O)N1CCC[C@H]1C(=O)N1CCC[C@H]1C(=O)N1CCC[C@H]1C(=O)N[C@H](C(=O)N[C@@H](CC(C)C)C(=O)N[C@@H](CCCNC(=N)N)C(=O)N1CCC[C@H]1C(=O)N1CCC[C@H]1C(=O)N1CCC[C@H]1C(=O)N[C@H](C(=O)N[C@@H](CC(C)C)C(=O)N[C@@H](CCCNC(=N)N)C(=O)N1CCC[C@H]1C(=O)N1CCC[C@H]1C(=O)N1CCC[C@H]1C(=O)O)C(C)C)C(C)C [SAP, H-(VLRPPP)3-OH] (H-VLRPPPVLRPPPVLRPPP-OH)
Caco-2 cells [2]
  Caco-2 T (%): 0%
[4]; Table 1, 2 h at 37 °C
  Papp at 2 h, 200 μM: 5.5 ± 1.5 ×10⁻⁶ cm/s
[5]; Table 1, 2 h at 37 °C
  BBB T (%): 5 ± 3%

## CC[C@H](C)[C@H](NC(=O)[C@H](C)NC(=O)[C@@H](N)Cc1c[nH]cn1)C(=O)N[C@@H](Cc1ccc(O)cc1)C(=O)N1CCC[C@H]1C(=O)N[C@@H](CCCNC(=N)N)C(=O)N[C@@H](Cc1c[nH]cn1)C(N)=O [HAI, H-HAIYPRH-NH2]
[1]
  Papp at 2 h, 50 μM: 0.0002 ± 8e-05 ×10⁻⁶ cm/s
Caco-2 cells [2]
  Detection by MALDI-TOF MS in acceptor wells: detected
  Caco-2 T (%): 0.7 ± 0.3%
  Caco-2 transport: 0.7 ± 0.3
[3]; Cf-HAI 50 μM, flow cytometry
  Internalization in presence of transferrin (Tf): promoted by the addition of Tf
[3]; range of concentrations of Cf-HAI
  Internalization at increasing concentrations of peptide: saturation of internalization
[8]
  Toxicity (MTT assay): not toxic
[4]; Table 1, 2 h at 37 °C
  Papp at 2 h, 200 μM: 18 ± 2 ×10⁻⁶ cm/s
[4]; Table 2, 2 h at 37 °C
  Papp at 2 h, 200 μM: 9 ± 5 ×10⁻⁶ cm/s
[5]; Table 1, 2 h at 37 °C
  BBB T (%): 16 ± 3%
[5]; Table 2, 2 h at 37 °C
  BBB T (%): 10 ± 3%
[6]; 150 μM in HBSS/human serum 90:10 (v/v)
  half-life at 150 μM: ~5 min
Rat astrocytes [9]
  Toxicity (MTT assay): not toxic
Rat astrocytes [7]; Cf-HAI 50 μM, flow cytometry
  Internalization in presence of transferrin (Tf): promoted by the addition of Tf

## N=C(N)NCCC[C@H](NC(=O)[C@H](CCCNC(=N)N)NC(=O)[C@H](CCCNC(=N)N)NC(=O)[C@H](CCCNC(=N)N)NC(=O)[C@H](CCCNC(=N)N)NC(=O)[C@H](CCCNC(=N)N)NC(=O)[C@H](CCCNC(=N)N)NC(=O)[C@@H](N)CCCNC(=N)N)C(=O)O [Peptide R8]
Caco-2 cells [2]
  Detection by MALDI-TOF MS in acceptor wells: detected
  Caco-2 T (%): 0%
[3]
  Internalization profile among candidates: highest internalization profiles
[4]; Table 1, 2 h at 37 °C
  Papp: 0.6 ± 0.06 ×10⁻⁶ cm/s
[5]; Table 1, 2 h at 37 °C
  BBB T (%): 0.68 ± 0.07%
Rat astrocytes [7]
  Internalization profile among candidates: highest internalization profiles

## TAT: HIV TAT 48–57 peptide, derived from the transcriptional trans-activator protein of HIV-1; cell-penetrating peptide (GRKKRRQRRR; UniProt P04608 48-57, looked up, fragment)
Caco-2 cells [2]
  Caco-2 T (%): 0%
[3]
  Internalization profile among candidates: highest internalization profiles
[5]; Table 1, 2 h at 37 °C
  BBB T (%): 0%
[5]; after 2 h
  Detection by MALDI-TOF MS in acceptor wells: not detected
Rat astrocytes [7]
  Internalization profile among candidates: highest internalization profiles

## CC[C@H](C)[C@H](NC(=O)[C@H](CC(=O)O)NC(=O)[C@H](CS)NC(=O)[C@@H]1CCCN1C(=O)[C@@H](NC(=O)CNC(=O)[C@@H]1CCCN1C(=O)[C@H](CCCNC(=N)N)NC(=O)[C@@H]1CCCN1C(=O)[C@H](CC(N)=O)NC(=O)[C@H](CCC(=O)O)NC(=O)[C@@H]1CCCN1C(=O)[C@H](CCSC)NC(=O)[C@H](Cc1c[nH]c2ccccc12)NC(=O)[C@@H](NC(=O)[C@@H](NC(=O)[C@@H](N)Cc1ccc(O)cc1)[C@@H](C)O)[C@@H](C)CC)[C@@H](C)O)C(=O)N[C@@H](Cc1ccccc1)C(=O)N[C@H](C(=O)N[C@@H](CC(N)=O)C(=O)N[C@@H](CO)C(=O)N[C@@H](CCCNC(=N)N)C(=O)NCC(=O)N[C@@H](CCCCN)C(=O)N[C@@H](CCCNC(=N)N)C(=O)N[C@@H](C)C(=O)N[C@@H](CO)C(=O)N[C@@H](CC(N)=O)C(=O)NCC(=O)O)[C@@H](C)O [RVG]
Caco-2 cells [10]
  Caco-2 Papp: 0 ×10⁻⁶ cm/s
  Caco-2 T (%): 0%
[11]
  BBB T (%): 0.29 ± 0.03%
In vitro
  Papp: 0.28 ± 0.02 ×10⁻⁶ cm/s

## Penetratin
[3]
  Internalization profile among candidates: highest internalization profiles
Rat astrocytes [7]
  Internalization profile among candidates: highest internalization profiles

— paper PMC6298966, “HAI Peptide and Backbone Analogs—Validation and Enhancement of Biostability and Bioactivity of BBB Shuttles” (Scientific Reports, 2018)
